The structures appear in SMILES notation. Bounds are passed on as bounds.

One assay deals with T1, sGC enzyme (Homo sapiens, UniProt Q02108+Q02153).
T1 construct: incorporated into these cells detect cGMP formed by the compounds stimulating the sGC enzyme; host or cells: HEK293 cells stably expressing GloSensor 40F cGMP biosensor
T1 sequence (Q02153 1-619): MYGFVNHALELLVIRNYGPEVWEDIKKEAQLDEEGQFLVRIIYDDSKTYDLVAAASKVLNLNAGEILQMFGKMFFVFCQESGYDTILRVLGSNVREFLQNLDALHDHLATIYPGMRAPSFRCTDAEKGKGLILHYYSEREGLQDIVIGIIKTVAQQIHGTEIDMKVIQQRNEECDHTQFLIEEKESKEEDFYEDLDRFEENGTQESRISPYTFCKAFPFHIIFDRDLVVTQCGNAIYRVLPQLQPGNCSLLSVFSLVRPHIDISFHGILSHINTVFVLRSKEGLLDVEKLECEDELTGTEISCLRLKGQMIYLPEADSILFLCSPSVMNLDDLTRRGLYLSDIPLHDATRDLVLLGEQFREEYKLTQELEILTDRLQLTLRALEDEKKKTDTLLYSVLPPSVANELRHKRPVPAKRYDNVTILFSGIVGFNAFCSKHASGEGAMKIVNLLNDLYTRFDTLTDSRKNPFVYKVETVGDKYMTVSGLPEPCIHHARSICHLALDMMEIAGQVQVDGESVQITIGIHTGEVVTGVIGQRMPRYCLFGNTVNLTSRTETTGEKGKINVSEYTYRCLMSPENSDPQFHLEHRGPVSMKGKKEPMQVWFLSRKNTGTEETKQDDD
T1 sequence (Q02108 1-690): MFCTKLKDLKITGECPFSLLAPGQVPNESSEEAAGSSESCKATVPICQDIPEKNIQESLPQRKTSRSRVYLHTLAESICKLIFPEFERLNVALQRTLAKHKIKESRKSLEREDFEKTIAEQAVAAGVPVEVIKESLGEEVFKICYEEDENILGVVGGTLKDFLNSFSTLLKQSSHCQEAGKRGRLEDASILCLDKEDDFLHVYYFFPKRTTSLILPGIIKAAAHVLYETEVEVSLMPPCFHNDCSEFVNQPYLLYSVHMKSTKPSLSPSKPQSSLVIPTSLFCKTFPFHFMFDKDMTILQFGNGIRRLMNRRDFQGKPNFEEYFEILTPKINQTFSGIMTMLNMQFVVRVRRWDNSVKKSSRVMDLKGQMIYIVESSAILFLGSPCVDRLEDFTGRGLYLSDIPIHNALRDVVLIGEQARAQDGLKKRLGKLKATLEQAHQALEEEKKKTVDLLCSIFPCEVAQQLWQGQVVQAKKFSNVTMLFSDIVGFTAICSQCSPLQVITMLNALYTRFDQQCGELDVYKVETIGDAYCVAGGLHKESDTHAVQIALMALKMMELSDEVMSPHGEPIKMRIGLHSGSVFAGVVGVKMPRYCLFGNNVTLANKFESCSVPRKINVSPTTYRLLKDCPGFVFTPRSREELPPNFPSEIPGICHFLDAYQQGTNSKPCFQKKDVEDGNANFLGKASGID
Kind of assay: cGMP GloSensor cell-based assay, 384-well format. As to conditions: HEK293 cells expressing GloSensor 40F cGMP; 10 μM DETA-NONOate; normalized to 30 μM Compound Y; compounds in Table IA; read-out: Glo-sensor AbsEC50. From the text:
Human embryonic kidney cells (HEK293) cells expressing GloSensor™ 40F cGMP (Part No: CS182801, Promega) were used to evaluate the activity of test compounds. The luminescent biosensors (engineered luciferase) that were incorporated into these cells detect cGMP formed by the compounds stimulating the sGC enzyme and emit luminescence.
cGMP GloSensor cells were maintained in Dulbecco's Modification of Eagle's Medium (DMEM) supplemented with fetal bovine serum (FBS, 10% final) and hygromycine (200 ug/ml). […] Cells were incubated overnight at 37° C. in a humidified chamber with 5% CO2. The next day, medium was removed and cells were replaced with 40 ul/well of GloSensor™, 2 mM (Promega Cat No E1291). Cells were treated for 90 minutes at 25° C. to allow the substrate to equilibrate in the cells. […] For endpoint SAR screening, data were collected after 55 min incubation at room temperature.
Data were fit using a 4-parameter fit (log(agonist) vs. response—variable slope) using GraphPad Prism Software v.5. n=2 for all compounds. […] Compounds failing to elicit a minimum response of 50% are reported as >30 μM or ND.
As to `Fc1ccccc1Cn1nc(-c2nc(C(F)(F)F)n[nH]2)c2ccncc21` [Compound I-32], the EC50 was in the range of 100 to 1000 nM. The same measure, in the same setting: the value for `Fc1ccccc1Cn1nc(-c2nc(C(F)(F)F)n[nH]2)c2ncccc21` [Compound I-35, 1-(2-Fluorobenzyl)-3-(3-(trifluoromethyl)-1H-1,2,4-triazol-5-yl)-1H-pyrazolo[4,3-b]pyridine] was > 1000 nM; that for `CC(F)(F)c1n[nH]c(-c2nn(Cc3ccccc3F)c3ncccc23)n1` [Compound I-36, 3-(3-(1,1-difluoroethyl)-1H-1,2,4-triazol-5-yl)-1-(2-fluorobenzyl)-1H-pyrazolo[3,4-b]pyridine] was < 100 nM; that for `CC(C)(C)c1n[nH]c(-c2nn(Cc3ccccc3F)c3ncccc23)n1` [Compound I-37, 3-(3-(tert-Butyl)-1H-1,2,4-triazol-5-yl)-1-(2-fluorobenzyl)-1H-pyrazolo[3,4-b]pyridine] was < 100 nM. `Cc1ncc(Cn2nc(-c3nc(C(F)(F)F)n[nH]3)c3ncccc32)cn1` [Compound I-38]: the EC50 is > 1000 nM. The same measure, in the same setting: under `Fc1ccccc1Cn1nc(-c2nc(-c3ccccc3)n[nH]2)c2cccnc21` [Compound I-39] stands > 1000 nM; under `NC(=O)c1n[nH]c(-c2nn(Cc3ccccc3F)c3ncccc23)n1` [Compound I-40, 5-(1-(2-fluorobenzyl)-1H-pyrazolo[3,4-b]pyridin-3-yl)-1H-1,2,4-triazole-3-carboxamide], 100 to 1000 nM. Turning to `Fc1cccc(F)c1Cn1nc(-c2nc(C(F)(F)F)n[nH]2)c2cccnc21` [Compound I-42], the EC50 is < 100 nM. Same read-out and setting: under `Fc1ccccc1Cn1nc(-c2nc(C(F)(F)F)n[nH]2)c2cnccc21` [Compound I-43, 1-(2-Fluorobenzyl)-3-(3-(trifluoromethyl)-1H-1,2,4-triazol-5-yl)-1H-pyrazolo[4,3-c]pyridine] stands > 1000 nM; under `Fc1n[nH]c(-c2nn(Cc3ccccc3F)c3ncccc23)n1` [Compound I-45, 3-(3-fluoro-1H-1,2,4-triazol-5-yl)-1-(2-fluorobenzyl)-1H-pyrazolo[3,4-b]pyridine], 100 to 1000 nM; under `Cc1ncc(Cn2nc(-c3nc(C(F)(F)F)n[nH]3)c3cccc(Cl)c32)cn1` [Compound I-46, 7-Chloro-1-((2-methylpyrimidin-5-yl)methyl)-3-(3-(trifluoromethyl)-1H-1,2,4-triazol-5-yl)-1H-indazole], 100 to 1000 nM. Take `Fc1ccccc1Cn1nc(-c2nc(Cl)n[nH]2)c2cccnc21` [Compound I-47, 3-(3-Chloro-1H-1,2,4-triazol-5-yl)-1-(2-fluorobenzyl)-1H-pyrazolo[3,4-b]pyridine]: the EC50 was < 100 nM. Take `Cc1ccc2c(-c3nc(C(F)(F)F)n[nH]3)nn(Cc3ccccc3F)c2n1` [Compound I-50, 1-(2-Fluorobenzyl)-6-methyl-3-(3-(trifluoromethyl)-1H-1,2,4-triazol-5-yl)-1H-pyrazolo[3,4-b]pyridine]: the EC50 is < 100 nM. `Fc1cc(F)cc(Cn2nc(-c3nc(C(F)(F)F)n[nH]3)c3cccnc32)c1` [Compound I-51, 1-(3,5-Difluorobenzyl)-3-(3-(trifluoromethyl)-1H-1,2,4-triazol-5-yl)-1H-pyrazolo[3,4-b]pyridine]: the EC50 was < 100 nM. Consider `Fc1cccc(Cn2nc(-c3nc(C(F)(F)F)n[nH]3)c3cccnc32)c1` [Compound I-52, 1-(3-Fluorobenzyl)-3-(3-(trifluoromethyl)-1H-1,2,4-triazol-5-yl)-1H-pyrazolo[3,4-b]pyridine], for which the EC50 was < 100 nM.

As for `Fc1ccc(Cn2nc(-c3nc(C(F)(F)F)n[nH]3)c3cccnc32)cc1` [Compound I-53, 1-(4-Fluorobenzyl)-3-(3-(trifluoromethyl)-1H-1,2,4-triazol-5-yl)-1H-pyrazolo[3,4-b]pyridine], the EC50 was < 100 nM.

As for `Cc1ccc(Cn2nc(-c3nc(C(F)(F)F)n[nH]3)c3cccnc32)cc1` [Compound I-54, 1-(4-Methylbenzyl)-3-(3-(trifluoromethyl)-1H-1,2,4-triazol-5-yl)-1H-pyrazolo[3,4-b]pyridine], the EC50 was < 100 nM. On the same count and under the same terms, under `C=C(C)c1n[nH]c(-c2nn(Cc3ccccc3F)c3ncccc23)n1` [Compound I-55] stands 100 to 1000 nM; under `Fc1ccccc1Cn1nc(-c2nc(N3CCOCC3)n[nH]2)c2cccnc21` [Compound I-57], 100 to 1000 nM. On the same count and under the same terms, under `FCc1n[nH]c(-c2nn(Cc3ccccc3F)c3ncccc23)n1` [Compound I-58, 1-(2-Fluorobenzyl)-3-(3-(fluoromethyl)-1H-1,2,4-triazol-5-yl)-1H-pyrazolo[3,4-b]pyridine] stands < 100 nM. With `Fc1ccccc1Cn1nc(-c2nc(C3(C(F)(F)F)CC3)n[nH]2)c2cccnc21` [Compound I-59, 1-(2-fluorobenzyl)-3-(3-(1-(trifluoromethyl)cyclopropyl)-1H-1,2,4-triazol-5-yl)-1H-pyrazolo[3,4-b]pyridine], the EC50 lay within 100 to 1000 nM. Still for that read-out and setting: the value for `Cc1n[nH]c(-c2nn(Cc3ccccc3F)c3ncccc23)n1` [Compound I-60, 1-(2-Fluorobenzyl)-3-(3-methyl-1H-1,2,4-triazol-5-yl)-1H-pyrazolo[3,4-b]pyridine] was < 100 nM; that for `Cc1ncc(Cn2nc(-c3nc(C(F)(F)F)n[nH]3)c3ccc(F)cc32)cn1` [Compound I-61, 6-Fluoro-1-((2-methylpyrimidin-5-yl)methyl)-3-(3-(trifluoromethyl)-1H-1,2,4-triazol-5-yl)-1H-indazole] was < 100 nM; that for `CC1(c2n[nH]c(-c3nn(Cc4ccccc4F)c4ncccc34)n2)CC1` [Compound I-63, 1-(2-Fluorobenzyl)-3-(3-(1-methylcyclopropyl)-1H-1,2,4-triazol-5-yl)-1H-pyrazolo[3,4-b]pyridine] was < 100 nM. Consider `Fc1ccccc1Cn1nc(-c2nc(C(F)(F)Cl)n[nH]2)c2cccnc21` [Compound I-65, 3-(3-(Chlorodifluoromethyl)-1H-1,2,4-triazol-5-yl)-1-(2-fluorobenzyl)-1H-pyrazolo[3,4-b]pyridine], for which the EC50 is < 100 nM.

The assay is the same for the next values; noted with them: HEK293 cells expressing GloSensor 40F cGMP; 10 μM DETA-NONOate; normalized to 30 μM Compound Y; compounds in Table IB; read-out: Glo-sensor Abs EC50.
In the case of `Fc1cc(F)c2c(Cc3cncnc3)nc(-c3nc(C(F)(F)F)n[nH]3)n2c1` [Compound I-28, 6,8-Difluoro-1-(pyrimidin-5-ylmethyl)-3-(3-(trifluoromethyl)-1H-1,2,4-triazol-5-yl)imidazo[1,5-a]pyridine], the EC50 was < 100 nM. On the same count and under the same terms, under `Cc1ncc(Cc2nc(-c3nc(C(F)(F)F)n[nH]3)n3ccc(Cl)cc23)cn1` [Compound I-29, 7-Chloro-1-((2-methylpyrimidin-5-yl)methyl)-3-(3-(trifluoromethyl)-1H-1,2,4-triazol-5-yl)imidazo[1,5-a]pyridine] stands 100 to 1000 nM; under `Cc1ncc(Cc2nc(-c3nc(C(F)(F)F)n[nH]3)n3cc(Cl)ccc23)cn1` [Compound I-34, 6-Chloro-1-((2-methylpyrimidin-5-yl)methyl)-3-(3-(trifluoromethyl)-1H-1,2,4-triazol-5-yl)imidazo[1,5-a]pyridine], > 1000 nM; under `Fc1ccccc1Cc1nc(-c2nc(C(F)(F)F)n[nH]2)n2ccncc12` [Compound I-44, 1-(2-Fluorobenzyl)-3-(3-(trifluoromethyl)-1H-1,2,4-triazol-5-yl)imidazo[1,5-a]pyrazine], > 1000 nM.

For the origin of these results see US12435080B2, “sGC stimulators” (Tisento Therapeutics Inc., priority 2016, dated 2025).
